Results reported in the NIST ThermoML archive (doi:10.1016/j.jct.2013.01.023).
± gives the expanded uncertainty stated by the source.

Experiment: mn = molality of the nth substance listed, in mol/kg
Details: 101 kPa, Liquid; for mass density: Vibrating tube method; for speed of sound: Pulse-echo method

C[N+](C)(C)[O-] [trimethylamine oxide] + O
Details	mass density, 288.15 K [kg/m3]	mass density, 293.15 K [kg/m3]	mass density, 298.15 K [kg/m3]	mass density, 303.15 K [kg/m3]	mass density, 308.15 K [kg/m3]	speed of sound, 298.15 K [m/s]
m1 = 0.0592	999.725 ± 0.38	998.807 ± 0.37	997.629 ± 0.36	996.213 ± 0.35	994.58 ± 0.34	1500.9 ± 2.7
m1 = 0.1182	1000.29 ± 0.7	999.358 ± 0.68	998.163 ± 0.66	996.73 ± 0.64	995.083 ± 0.63	1505.1 ± 5.1
m1 = 0.1768	1000.88 ± 1	999.919 ± 1	998.707 ± 0.97	997.258 ± 0.94	995.602 ± 0.91	1509.2 ± 7.5
m1 = 0.2361	1001.44 ± 1.4	1000.47 ± 1.4	999.234 ± 1.4	997.769 ± 1.3	996.09 ± 1.3	1513.3 ± 9.9
m1 = 0.2958	1002.09 ± 1.9	1001.09 ± 1.6	999.839 ± 1.6	998.357 ± 1.5	996.661 ± 1.7	1517.4 ± 12

CN(C)CC(=O)O [(Dimethylamino)acetic acid] + O
Details	mass density, 288.15 K [kg/m3]	mass density, 293.15 K [kg/m3]	mass density, 298.15 K [kg/m3]	mass density, 303.15 K [kg/m3]	mass density, 308.15 K [kg/m3]	speed of sound, 298.15 K [m/s]
m1 = 0.05966	1000.46 ± 0.11	999.537 ± 0.11	998.354 ± 0.11	996.925 ± 0.11	995.303 ± 0.11	1500.9 ± 0.98
m1 = 0.119	1001.8 ± 0.11	1000.85 ± 0.11	999.646 ± 0.11	998.203 ± 0.11	996.574 ± 0.11	1505.1 ± 0.98
m1 = 0.1791	1003.14 ± 0.11	1002.16 ± 0.11	1000.94 ± 0.11	999.477 ± 0.11	997.836 ± 0.11	1509.4 ± 0.98
m1 = 0.2399	1004.48 ± 0.11	1003.48 ± 0.11	1002.23 ± 0.11	1000.75 ± 0.11	999.104 ± 0.11	1513.6 ± 0.99
m1 = 0.3007	1005.8 ± 0.11	1004.78 ± 0.11	1003.51 ± 0.11	1002.02 ± 0.11	1000.37 ± 0.11	1517.9 ± 0.99

CNCC(=O)O [sarcosine] + O
Details	mass density, 288.15 K [kg/m3]	mass density, 293.15 K [kg/m3]	mass density, 298.15 K [kg/m3]	mass density, 303.15 K [kg/m3]	mass density, 308.15 K [kg/m3]	speed of sound, 298.15 K [m/s]
m1 = 0.05883	1000.7 ± 0.11	999.78 ± 0.11	998.598 ± 0.11	997.176 ± 0.11	995.552 ± 0.11	1500.3 ± 0.97
m1 = 0.1166	1002.25 ± 0.11	1001.31 ± 0.11	1000.12 ± 0.11	998.68 ± 0.11	997.042 ± 0.11	1503.9 ± 0.98
m1 = 0.1777	1003.88 ± 0.11	1002.92 ± 0.11	1001.7 ± 0.11	1000.25 ± 0.11	998.599 ± 0.11	1507.7 ± 0.98
m1 = 0.2363	1005.42 ± 0.11	1004.43 ± 0.11	1003.2 ± 0.11	1001.74 ± 0.11	1000.07 ± 0.11	1511.3 ± 0.98
m1 = 0.2987	1007.05 ± 0.11	1006.03 ± 0.11	1004.79 ± 0.11	1003.31 ± 0.11	1001.63 ± 0.11	1515.2 ± 0.98

NCC(=O)O [2-aminoacetic acid] + O
Details	mass density, 288.15 K [kg/m3]	mass density, 293.15 K [kg/m3]	mass density, 298.15 K [kg/m3]	mass density, 303.15 K [kg/m3]	mass density, 308.15 K [kg/m3]	speed of sound, 298.15 K [m/s]
m1 = 0.06261	1001.13 ± 0.11	1000.21 ± 0.11	999.029 ± 0.11	997.604 ± 0.11	995.978 ± 0.11	1499.9 ± 0.97
m1 = 0.1199	1002.98 ± 0.11	1002.03 ± 0.11	1000.83 ± 0.11	–	997.751 ± 0.11	1502.8 ± 0.98
m1 = 0.1769	1004.8 ± 0.11	1003.84 ± 0.11	1002.62 ± 0.11	1001.15 ± 0.11	999.494 ± 0.11	1505.8 ± 0.98
m1 = 0.2352	1006.65 ± 0.11	1005.66 ± 0.11	1004.42 ± 0.11	1002.94 ± 0.11	1001.28 ± 0.11	1508.8 ± 0.98
m1 = 0.2963	1008.56 ± 0.11	1007.54 ± 0.11	1006.29 ± 0.11	1004.79 ± 0.11	1003.12 ± 0.11	1512 ± 0.98

C[N+](C)(C)CC(=O)[O-] [(trimethylammonio)acetate] + O
Details	mass density, 288.15 K [kg/m3]	mass density, 293.15 K [kg/m3]	mass density, 298.15 K [kg/m3]	mass density, 303.15 K [kg/m3]	mass density, 308.15 K [kg/m3]	speed of sound, 298.15 K [m/s]
m1 = 0.06226	1000.25 ± 0.11	999.33 ± 0.11	998.149 ± 0.11	996.726 ± 0.11	995.1 ± 0.11	1501.3 ± 0.97
m1 = 0.125	1001.4 ± 0.11	1000.46 ± 0.11	999.253 ± 0.11	997.814 ± 0.11	996.18 ± 0.11	1505.9 ± 0.98
m1 = 0.1884	1002.54 ± 0.11	1001.57 ± 0.11	1000.35 ± 0.11	998.899 ± 0.11	997.254 ± 0.11	1510.5 ± 0.98
m1 = 0.2532	1003.69 ± 0.11	1002.7 ± 0.11	1001.46 ± 0.11	999.994 ± 0.11	998.337 ± 0.11	1515.2 ± 0.98
m1 = 0.3185	1004.83 ± 0.11	1003.83 ± 0.11	1002.56 ± 0.11	1001.08 ± 0.11	999.42 ± 0.11	1519.9 ± 0.99
